Reference: ChEMBL document CHEMBL4364276, “Discovery of 4-phenyl-2H-benzo[b][1,4]oxazin-3(4H)-one derivatives as potent and orally active PI3K/mTOR dual inhibitors” (Eur J Med Chem, 2019)

How the values were obtained:
[1] = biological target: Vascular endothelial growth factor receptor 2 (Homo sapiens) (UniProt P35968); experiment: Inhibition of human KDR at 100 nM using poly[Glu:Tyr] (4:1) as substrate by [gamma-33P]-ATP assay
[2] = biological target: Proto-oncogene tyrosine-protein kinase Src (Homo sapiens) (UniProt P12931); experiment: Inhibition of human c-SRC at 100 nM using poly[Glu:Tyr] (4:1) as substrate by [gamma-33P]-ATP assay
[3] = biological target: CDK6/cyclin D3 (Homo sapiens) (UniProt P30281+Q00534); experiment: Inhibition of human CDK6/cyclin-D3 at 100 nM using RB protein as substrate by [gamma-33P]-ATP assay; type: protein-complex assay
[4] = biological target: Phosphatidylinositol 4,5-bisphosphate 3-kinase catalytic subunit alpha isoform (Homo sapiens, UniProt P42336); experiment: Inhibition of recombinant human full length N-terminal GST-tagged PI3Kalpha (1 to 1068 residues)/PIK3R1 (1 to 724 residues) expressed in baculovirus expression system using PIP2 as substrate incubated for 1 hr by ADP-Glo assay
[5] = biological target: Serine/threonine-protein kinase Nek5 (Homo sapiens) (UniProt Q6P3R8); experiment: Inhibition of human NEK5 at 100 nM using MBP as substrate by [gamma-33P]-ATP assay
[6] = biological target: Ephrin type-A receptor 4 (Homo sapiens) (UniProt P54764); experiment: Inhibition of human EPHA4 at 100 nM using poly[Glu:Tyr] (4:1) as substrate by [gamma-33P]-ATP assay
[7] = biological target: Serine/threonine-protein kinase N2 (Homo sapiens) (UniProt Q16513); experiment: Inhibition of human PKN2 at 100 nM using KKLNRTLSVA as substrate by [gamma-33P]-ATP assay
[8] = biological target: Fibroblast growth factor receptor 3 (Homo sapiens) (UniProt P22607); experiment: Inhibition of human FGFR3 at 100 nM using poly[Glu:Tyr] (4:1) as substrate by [gamma-33P]-ATP assay
[9] = biological target: Mitogen-activated protein kinase kinase kinase 3 (Homo sapiens) (UniProt Q99759); experiment: Inhibition of human MEKK3 at 100 nM using MBP as substrate by [gamma-33P]-ATP assay
[10] = biological target: Serine/threonine-protein kinase tousled-like 2 (Homo sapiens) (UniProt Q86UE8); experiment: Inhibition of human TLK2 at 100 nM using casein as substrate by [gamma-33P]-ATP assay
[11] = biological target: CDK9/Cyclin-T2 (Homo sapiens) (UniProt P50750+O60583); experiment: Inhibition of human CDK9/cyclin-T2 at 100 nM using KTFCGTPEYLAPEVRREPRILSEEEQEMFRDFDYIADWC as substrate by [gamma-33P]-ATP assay; type: protein-complex assay
[12] = biological target: Aurora kinase C (Homo sapiens) (UniProt Q9UQB9); experiment: Inhibition of human Aurora C at 100 nM using [H-LRRASLG] as substrate by [gamma-33P]-ATP assay
[13] = biological target: Testis-specific serine/threonine-protein kinase 6 (Homo sapiens) (UniProt Q9BXA6); experiment: Inhibition of human SSTK at 100 nM using MBP as substrate by [gamma-33P]-ATP assay
[14] = biological target: Dual specificity tyrosine-phosphorylation-regulated kinase 4 (Homo sapiens) (UniProt Q9NR20); experiment: Inhibition of human DYRK4 at 100 nM using RRRFRPASPLRGPPK as substrate by [gamma-33P]-ATP assay
[15] = biological target: Lymphokine-activated killer T-cell-originated protein kinase (Homo sapiens) (UniProt Q96KB5); experiment: Inhibition of human PBK at 100 nM using MBP as substrate by [gamma-33P]-ATP assay
[16] = biological target: Non-receptor tyrosine-protein kinase TYK2 (Homo sapiens) (UniProt P29597); experiment: Inhibition of human TYK2 at 100 nM using KKSRGDYMTMQIG as substrate by [gamma-33P]-ATP assay
[17] = biological target: Tyrosine-protein kinase Tec (Homo sapiens) (UniProt P42680); experiment: Inhibition of human TEC at 100 nM using poly[Glu:Tyr] (4:1) as substrate by [gamma-33P]-ATP assay
[18] = biological target: Myotonin-protein kinase (Homo sapiens) (UniProt Q09013); experiment: Inhibition of human DMPK at 100 nM using KKRNRRLSVA as substrate by [gamma-33P]-ATP assay
[19] = biological target: Serine/threonine-protein kinase Sgk1 (Homo sapiens) (UniProt O00141); experiment: Inhibition of human SGK1 at 100 nM using KGSGSGRPRTSSFAEG as substrate by [gamma-33P]-ATP assay
[20] = biological target: Testis-specific serine/threonine-protein kinase 1 (Homo sapiens) (UniProt Q9BXA7); experiment: Inhibition of human STK22D at 100 nM using KKKVSRSGLYRSPSMPENLNRPR as substrate by [gamma-33P]-ATP assay
[21] = biological target: Tyrosine-protein kinase receptor TYRO3 (Homo sapiens) (UniProt Q06418); experiment: Inhibition of human TYRO3 at 100 nM using poly[Glu:Tyr] (4:1) as substrate by [gamma-33P]-ATP assay
[22] = biological target: Tyrosine-protein kinase FRK (Homo sapiens) (UniProt P42685); experiment: Inhibition of human FRK at 100 nM using poly[Glu:Tyr] (4:1) as substrate by [gamma-33P]-ATP assay
[23] = biological target: Serine/threonine-protein kinase TAO3 (Homo sapiens) (UniProt Q9H2K8); experiment: Inhibition of human TAOK3 at 100 nM using MBP as substrate by [gamma-33P]-ATP assay
[24] = biological target: Serine/threonine-protein kinase mTOR (Homo sapiens, UniProt P42345); experiment: Inhibition of human mTOR at 100 nM using 4EBP1 as substrate by [gamma-33P]-ATP assay
[25] = biological target: Serine/threonine-protein kinase MARK2 (Homo sapiens) (UniProt Q7KZI7); experiment: Inhibition of human MARK2 isoform 4 at 100 nM using KKKVSRSGLYRSPSMPENLNRPR as substrate by [gamma-33P]-ATP assay
[26] = biological target: Mitogen-activated protein kinase kinase kinase 19 (Homo sapiens) (UniProt Q56UN5); experiment: Inhibition of human YSK4 at 100 nM using MBP as substrate by [gamma-33P]-ATP assay
[27] = biological target: Tyrosine-protein kinase Lck (Homo sapiens) (UniProt P06239); experiment: Inhibition of human LCK at 100 nM using poly[Glu:Tyr] (4:1) as substrate by [gamma-33P]-ATP assay
[28] = biological target: Mitogen-activated protein kinase 3 (Homo sapiens) (UniProt P27361); experiment: Inhibition of human ERK1 at 100 nM using MBP as substrate by [gamma-33P]-ATP assay
[29] = biological target: Serine/threonine-protein kinase PLK3 (Homo sapiens) (UniProt Q9H4B4); experiment: Inhibition of human PLK3 at 100 nM using casein as substrate by [gamma-33P]-ATP assay
[30] = biological target: Serine/threonine-protein kinase Nek7 (Homo sapiens) (UniProt Q8TDX7); experiment: Inhibition of human NEK7 at 100 nM using casein as substrate by [gamma-33P]-ATP assay

Serine/threonine-protein kinase Sgk1 (Homo sapiens), sequence (O00141 whole entry): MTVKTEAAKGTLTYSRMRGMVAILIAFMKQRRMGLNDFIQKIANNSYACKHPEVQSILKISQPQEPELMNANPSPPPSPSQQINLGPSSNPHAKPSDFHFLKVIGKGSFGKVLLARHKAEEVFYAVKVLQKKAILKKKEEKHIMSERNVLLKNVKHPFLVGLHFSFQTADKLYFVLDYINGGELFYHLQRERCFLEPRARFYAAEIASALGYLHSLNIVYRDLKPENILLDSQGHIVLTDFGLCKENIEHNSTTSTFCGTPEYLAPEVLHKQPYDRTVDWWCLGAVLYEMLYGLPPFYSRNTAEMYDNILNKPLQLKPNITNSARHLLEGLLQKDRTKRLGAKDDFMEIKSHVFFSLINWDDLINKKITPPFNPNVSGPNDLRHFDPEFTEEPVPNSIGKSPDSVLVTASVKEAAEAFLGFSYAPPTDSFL
Myotonin-protein kinase (Homo sapiens), sequence (Q09013 whole entry): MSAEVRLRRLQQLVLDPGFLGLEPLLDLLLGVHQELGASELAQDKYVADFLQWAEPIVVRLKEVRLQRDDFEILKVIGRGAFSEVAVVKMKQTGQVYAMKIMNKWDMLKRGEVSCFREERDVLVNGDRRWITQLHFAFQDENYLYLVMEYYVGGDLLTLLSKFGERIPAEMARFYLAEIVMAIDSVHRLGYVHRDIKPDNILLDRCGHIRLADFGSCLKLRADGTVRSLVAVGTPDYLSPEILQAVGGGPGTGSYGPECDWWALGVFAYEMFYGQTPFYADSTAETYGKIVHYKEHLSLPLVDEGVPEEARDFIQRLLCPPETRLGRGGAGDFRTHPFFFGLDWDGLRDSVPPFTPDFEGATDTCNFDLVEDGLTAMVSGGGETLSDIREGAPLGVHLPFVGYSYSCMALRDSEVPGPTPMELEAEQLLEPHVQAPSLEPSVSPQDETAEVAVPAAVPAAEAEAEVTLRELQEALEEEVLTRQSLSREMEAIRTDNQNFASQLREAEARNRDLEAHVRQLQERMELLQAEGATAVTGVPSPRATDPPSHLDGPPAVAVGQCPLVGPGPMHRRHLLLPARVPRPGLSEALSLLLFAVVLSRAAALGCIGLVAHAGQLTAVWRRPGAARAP
Non-receptor tyrosine-protein kinase TYK2 (Homo sapiens), sequence (P29597 whole entry): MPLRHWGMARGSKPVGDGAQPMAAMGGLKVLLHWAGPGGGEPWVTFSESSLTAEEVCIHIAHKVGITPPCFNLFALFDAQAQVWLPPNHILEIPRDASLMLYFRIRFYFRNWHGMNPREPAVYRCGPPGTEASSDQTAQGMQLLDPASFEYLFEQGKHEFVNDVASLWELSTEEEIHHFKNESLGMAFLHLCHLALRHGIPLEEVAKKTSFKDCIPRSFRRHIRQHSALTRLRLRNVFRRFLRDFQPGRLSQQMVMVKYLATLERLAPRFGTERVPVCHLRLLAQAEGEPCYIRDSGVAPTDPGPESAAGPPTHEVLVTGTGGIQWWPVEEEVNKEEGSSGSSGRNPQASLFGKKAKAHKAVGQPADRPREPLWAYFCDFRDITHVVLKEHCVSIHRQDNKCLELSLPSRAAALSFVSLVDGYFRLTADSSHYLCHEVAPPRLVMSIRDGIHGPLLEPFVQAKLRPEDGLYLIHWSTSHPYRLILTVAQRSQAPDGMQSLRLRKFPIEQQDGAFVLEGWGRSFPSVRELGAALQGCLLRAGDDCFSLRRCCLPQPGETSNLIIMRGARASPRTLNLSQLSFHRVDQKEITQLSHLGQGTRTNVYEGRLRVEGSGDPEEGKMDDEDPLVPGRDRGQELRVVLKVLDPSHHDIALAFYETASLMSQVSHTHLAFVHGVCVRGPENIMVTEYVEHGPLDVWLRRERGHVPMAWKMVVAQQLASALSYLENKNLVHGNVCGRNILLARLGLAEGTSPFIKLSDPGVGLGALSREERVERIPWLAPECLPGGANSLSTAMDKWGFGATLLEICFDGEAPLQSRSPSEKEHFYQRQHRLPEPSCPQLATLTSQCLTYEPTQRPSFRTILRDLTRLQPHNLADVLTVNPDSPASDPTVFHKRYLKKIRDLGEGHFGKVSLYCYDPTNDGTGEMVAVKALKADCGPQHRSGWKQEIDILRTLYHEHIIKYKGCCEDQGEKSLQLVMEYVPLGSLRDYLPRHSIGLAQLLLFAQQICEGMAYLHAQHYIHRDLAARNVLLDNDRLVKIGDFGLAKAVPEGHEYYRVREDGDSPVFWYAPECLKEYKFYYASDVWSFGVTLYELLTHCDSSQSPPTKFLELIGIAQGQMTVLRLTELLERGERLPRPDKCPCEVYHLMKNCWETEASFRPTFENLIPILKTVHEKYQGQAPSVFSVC
Dual specificity tyrosine-phosphorylation-regulated kinase 4 (Homo sapiens), sequence (Q9NR20 whole entry): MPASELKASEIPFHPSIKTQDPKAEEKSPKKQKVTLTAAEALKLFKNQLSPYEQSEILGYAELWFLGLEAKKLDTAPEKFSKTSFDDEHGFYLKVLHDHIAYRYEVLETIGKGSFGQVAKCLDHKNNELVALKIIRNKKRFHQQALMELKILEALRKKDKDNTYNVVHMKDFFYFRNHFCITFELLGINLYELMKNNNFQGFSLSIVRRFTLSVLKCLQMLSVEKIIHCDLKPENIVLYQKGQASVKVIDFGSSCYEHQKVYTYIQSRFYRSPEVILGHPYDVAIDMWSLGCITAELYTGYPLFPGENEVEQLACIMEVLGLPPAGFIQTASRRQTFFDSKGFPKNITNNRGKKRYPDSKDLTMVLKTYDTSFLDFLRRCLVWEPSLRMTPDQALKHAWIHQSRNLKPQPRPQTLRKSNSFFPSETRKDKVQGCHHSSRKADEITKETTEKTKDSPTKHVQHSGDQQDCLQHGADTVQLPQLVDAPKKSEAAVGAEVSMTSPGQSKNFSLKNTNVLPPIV
Serine/threonine-protein kinase TAO3 (Homo sapiens), sequence (Q9H2K8 whole entry): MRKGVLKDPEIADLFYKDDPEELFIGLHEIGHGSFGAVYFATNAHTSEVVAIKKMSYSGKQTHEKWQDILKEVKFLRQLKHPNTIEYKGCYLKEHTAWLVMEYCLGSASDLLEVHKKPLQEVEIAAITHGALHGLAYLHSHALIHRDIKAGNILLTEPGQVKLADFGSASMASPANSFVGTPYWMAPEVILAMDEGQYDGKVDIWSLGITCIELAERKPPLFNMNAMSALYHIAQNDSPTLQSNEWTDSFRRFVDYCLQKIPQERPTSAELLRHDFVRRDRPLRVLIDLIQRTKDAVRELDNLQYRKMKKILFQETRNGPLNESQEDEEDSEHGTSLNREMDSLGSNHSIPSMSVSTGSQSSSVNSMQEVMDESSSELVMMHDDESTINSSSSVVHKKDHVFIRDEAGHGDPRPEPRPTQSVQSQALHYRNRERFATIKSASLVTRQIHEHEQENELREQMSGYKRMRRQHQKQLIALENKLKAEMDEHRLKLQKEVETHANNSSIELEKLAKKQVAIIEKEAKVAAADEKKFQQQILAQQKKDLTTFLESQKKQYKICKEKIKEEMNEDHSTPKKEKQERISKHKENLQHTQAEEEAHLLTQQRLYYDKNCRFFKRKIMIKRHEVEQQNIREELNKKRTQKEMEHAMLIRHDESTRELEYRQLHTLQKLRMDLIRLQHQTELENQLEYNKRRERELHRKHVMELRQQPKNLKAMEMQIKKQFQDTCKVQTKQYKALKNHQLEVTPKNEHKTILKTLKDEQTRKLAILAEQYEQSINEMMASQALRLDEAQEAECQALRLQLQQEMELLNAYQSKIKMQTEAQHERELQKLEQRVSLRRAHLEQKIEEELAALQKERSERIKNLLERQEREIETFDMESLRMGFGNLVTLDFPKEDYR
Tyrosine-protein kinase Lck (Homo sapiens), sequence (P06239 2-509 limits assumed): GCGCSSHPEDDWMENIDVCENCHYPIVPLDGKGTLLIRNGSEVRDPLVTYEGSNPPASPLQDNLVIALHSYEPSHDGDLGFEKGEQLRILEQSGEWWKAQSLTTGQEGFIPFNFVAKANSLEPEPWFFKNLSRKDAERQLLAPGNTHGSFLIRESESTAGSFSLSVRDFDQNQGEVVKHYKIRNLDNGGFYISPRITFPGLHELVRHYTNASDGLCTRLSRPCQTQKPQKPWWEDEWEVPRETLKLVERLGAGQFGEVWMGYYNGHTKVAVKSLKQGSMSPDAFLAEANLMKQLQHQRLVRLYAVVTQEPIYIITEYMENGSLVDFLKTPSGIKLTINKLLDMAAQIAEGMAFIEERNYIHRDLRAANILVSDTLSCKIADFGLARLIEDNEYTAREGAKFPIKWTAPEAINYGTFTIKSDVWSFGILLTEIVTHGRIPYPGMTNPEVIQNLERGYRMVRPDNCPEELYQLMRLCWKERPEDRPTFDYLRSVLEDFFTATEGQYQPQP
Testis-specific serine/threonine-protein kinase 6 (Homo sapiens), sequence (Q9BXA6 whole entry): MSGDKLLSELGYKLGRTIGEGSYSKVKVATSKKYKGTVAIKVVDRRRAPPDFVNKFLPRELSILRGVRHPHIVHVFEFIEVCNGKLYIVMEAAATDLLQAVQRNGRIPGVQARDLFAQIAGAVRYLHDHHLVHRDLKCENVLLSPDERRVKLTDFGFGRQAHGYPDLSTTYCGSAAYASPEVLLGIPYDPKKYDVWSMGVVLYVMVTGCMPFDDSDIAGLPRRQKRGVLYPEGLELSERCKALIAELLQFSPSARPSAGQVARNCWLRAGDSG
Testis-specific serine/threonine-protein kinase 1 (Homo sapiens), sequence (Q9BXA7 whole entry): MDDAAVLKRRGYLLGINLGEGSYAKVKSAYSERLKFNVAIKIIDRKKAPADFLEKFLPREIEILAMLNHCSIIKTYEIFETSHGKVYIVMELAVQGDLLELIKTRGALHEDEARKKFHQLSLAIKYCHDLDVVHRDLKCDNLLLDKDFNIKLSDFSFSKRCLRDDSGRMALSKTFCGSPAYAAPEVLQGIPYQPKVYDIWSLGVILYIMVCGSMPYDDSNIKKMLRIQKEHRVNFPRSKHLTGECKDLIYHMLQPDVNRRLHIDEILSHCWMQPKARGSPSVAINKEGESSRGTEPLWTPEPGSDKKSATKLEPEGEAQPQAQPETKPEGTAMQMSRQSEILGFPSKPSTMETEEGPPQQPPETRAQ

COc1ccc(N2C(=O)COc3ccc(-c4cnc(OC)c(NS(=O)(=O)c5ccc(F)cc5)c4)cc32)cc1 gave an inhibition [1] of -3.23%, an inhibition [2] of 6.76% and an inhibition [3] of 3.81%. The IC50 [4] was 0.63 nM, the inhibition [5] was 1.15% and the inhibition [6] was 6.1%. It also gave an inhibition [7] of 6.6%, an inhibition [8] of -7.49% and an inhibition [9] of 2.85%. It also gave an inhibition [10] of -7.96%, an inhibition [11] of 31.9% and an inhibition [12] of 10.1%. For the same compound, the inhibition [13] was 2.2%, the inhibition [14] was -2.6% and the inhibition [15] was 0.99%. For the same compound, the inhibition [16] was 11.3%, the inhibition [17] was -4.06% and the inhibition [18] was -4.58%. It also gave an inhibition [19] of -1.5%, an inhibition [20] of -6.47% and an inhibition [21] of 3.03%. For the same compound, the inhibition [22] was 8.7%, the inhibition [23] was 6.13% and the inhibition [24] was 67.5%. For the same compound, the inhibition [25] was 1.93%, the inhibition [26] was 3.44% and the inhibition [27] was 16%. It also gave an inhibition [28] of 12.7%, an inhibition [29] of -5.25% and an inhibition [30] of 4.12%.
